Read-outs that look alike come from different tables or passages of the source. Values belong to the compound of their own block, whether it stands above or below them.
Experiments:
[1] = Cytotoxicity test (MTT), HT-29; format: cell-based; settings: human, HT-29, 48 h; for viability at 48 h, 0.01 µM / viability at 48 h, 0.1 µM / viability at 48 h, 1 µM / viability at 48 h, 10 µM / viability at 48 h, 100 µM: HT-29 cells (colorectal cancer cell line), read-out: Cell viability (% of control); for IC50 at 48 h: HT-29 cells
Experimental: (§1) The human colorectal cancer cell line HT-29 and the monocytic blood cancer-derived cell line U937 were cultured in a RPMI 1640 medium containing 10% FBS and 1% penicillin/streptomycin (PS) at 37° C. under a condition of 5% CO2, and when the cells used herein were grown to 80% or more, they were subcultured at a ratio of 1:3.
(§2) Each type of cells were cultured in a 96 well plate at a concentration of 1×10^5 cells/cm2, treated with a test compound by concentration in a medium only containing 1% FBS and 1% PS at 37° C. under a condition of 5% CO2 for 48 hours and reacted with 5 mg/mL of a 3-[4,5-dimethylthiazol-2-yl]-2,5-diphenyltetrazolium bromide (MTT) reagent for 4 hours, and then the medium was completely removed, the cells were treated with DMSO, formazan crystals were dissolved for 30 minutes, and then absorbance was measured at 540 nm.

[2] = Cytotoxicity test (MTT), U937; format: cell-based; settings: human, U937, 48 h; for viability at 48 h, 0.01 µM / viability at 48 h, 0.1 µM / viability at 48 h, 1 µM / viability at 48 h, 10 µM / viability at 48 h, 100 µM: U937 cells (monocytic blood cancer-derived cell line), read-out: Cell viability (% of control); for IC50 at 48 h: U937 cells
Experimental: as §1, §2

[3] = system: TNF-α-induced adhesion of monocytes to intestinal epithelial cells; assay: Inhibitory activity against TNF-α-induced adhesion of monocytes (U937) to intestinal epithelial cells (HT-29); format: cell-based, human; settings: Homo sapiens
Experimental: HT-29 human colorectal cancer-derived epithelial cells and U937 human-derived monocytic cells were cultured in an RPMI 1640 medium containing 10% FBS and 1% penicillin/streptomycin (PS) at 37° C. under a condition of 5% CO2, and when the cells were grown to 80% or more in a culture flask, they were subcultured in a ratio of 1:3 to be used in this test. The HT-29 cells were cultured in a 24-well plate at a concentration of 2×10^5 cells/cm2, and then the medium only containing 1% FBS and 1% PS was pretreated with a test drug for 1 hour. Afterward, BCECF-loaded U937 cells by being treated with 10 μg/mL of BCECF-AM at 37° C. for 30 minutes and 10 ng/mL of TNF-α reacted with the HT-29 cells previously treated with the test drug at 37° C. for 3 hours. After the reaction, the medium was removed, and then the cells were washed with PBS twice to remove U937 cells that were not adhered. In a subsequent step, for cell lysis, 0.1% Triton X-100 (0.1 M Tris) was treated to allow a reaction at room temperature for 30 minutes, and then fluorescence was measured using a Fluostar optima microplate reader (BMG LABTECH, Germany) to quantify the cells (Carvalho et al., 1996; Thapa et al., 2008).

[4] = read-out: IC50 (μM), cytotoxicity
[5] = 1 μM test drug, HT-29/U937 adhesion, 10 ng/mL TNF-α, read-out: Inhibitory activity (%)

Compound: O=c1[nH]cc(F)c(=O)[nH]1 [5-Fluorouracil, reference compound]
viability at 48 h, 0.01 µM [1]: 85.5 ± 3.9%
viability at 48 h, 0.1 µM [1]: 77.6 ± 4.6%
viability at 48 h, 1 µM [1]: 61.9 ± 4.2%
viability at 48 h, 10 µM [1]: 48.3 ± 2%
viability at 48 h, 100 µM [1]: 36 ± 2.5%
IC50 at 48 h [1, 4]: 7.6 µM
viability at 48 h, 0.01 µM [2]: 93 ± 2.7%
viability at 48 h, 0.1 µM [2]: 89.8 ± 2.7%
viability at 48 h, 1 µM [2]: 75.7 ± 0.6%
viability at 48 h, 10 µM [2]: 71.3 ± 1.7%
viability at 48 h, 100 µM [2]: 59.7 ± 0.2%
IC50 at 48 h [2]: > 100 µM

IC50 ([3]; HT-29/U937 adhesion, TNF-α-induced, read-out: IC50 (adhesion inhibition)): 18100 µM
Compound: Nc1ccc(O)c(C(=O)O)c1 [Compound 5-ASA, 5-aminosalicylic acid, reference compound]
inhibition at 1 µM [3, 5]: 3.8%
inhibition at 1 µM ([3]; 1 μM, Table 8, read-out: 1 μM concentration inhibitory activity): 3.8%

Compound: CCCNC(=O)Nc1nc(C)c(O)c(C)c1C [Compound 16-1, 1-(5-hydroxy-3,4,6-trimethylpyridin-2-yl)-3-propylurea]
inhibition at 1 µM [3, 5]: 18.2%
viability at 48 h, 0.01 µM [1]: 94.9 ± 6.5%
viability at 48 h, 0.1 µM [1]: 84.4 ± 7.6%
viability at 48 h, 1 µM [1]: 84.4 ± 4.2%
viability at 48 h, 10 µM [1]: 70.9 ± 6.2%
viability at 48 h, 100 µM [1]: 42.8 ± 2.7%
IC50 at 48 h ([1]; text of b533, read-out: cytotoxicity IC50 for HT-29): 64.6 µM
viability at 48 h, 0.01 µM [2]: 89.1 ± 3.5%
viability at 48 h, 0.1 µM [2]: 88.4 ± 3.5%
viability at 48 h, 1 µM [2]: 90 ± 4.8%
viability at 48 h, 10 µM [2]: 75.2 ± 0.9%
viability at 48 h, 100 µM [2]: 44.2 ± 0.7%
IC50 at 48 h [2]: 15.4 µM

Compound: Cc1nc(NC(=O)Nc2ccc(F)cc2)c(C)c(C)c1O [Compound 16-7, 1-(4-Fluorophenyl)-3-(5-hydroxy-3,4,6-trimethylpyridin-2-yl)urea]
inhibition at 1 µM [3, 5]: 14.6%

Compound: Cc1nc(NC(=O)Nc2ccc(Br)cc2)c(C)c(C)c1O [Compound 16-8, 1-(4-Bromophenyl)-3-(5-hydroxy-3,4,6-trimethylpyridin-2-yl)urea]
inhibition at 1 µM [3, 5]: 17.2%

Compound: Cc1ccc(NC(=O)Nc2nc(C)c(O)c(C)c2C)cc1 [Compound 16-9, 1-(5-hydroxy-3,4,6-trimethylpyridin-2-yl)-3-(p-tolyl)urea]
inhibition at 1 µM [3, 5]: 20.1%

Compound: COc1ccc(NC(=O)Nc2nc(C)c(O)c(C)c2C)cc1 [Compound 16-10, 1-(5-Hydroxy-3,4,6-trimethylpyridin-2-yl)-3-(4-methoxyphenyl)urea]
inhibition at 1 µM [3, 5]: 12.6%

Compound: Cc1nc(NC(=O)Nc2ccc(C(F)(F)F)cc2)c(C)c(C)c1O [Compound 16-11, 1-(5-hydroxy-3,4,6-trimethylpyridin-2-yl)-3-(4-(trifluoromethyl)phenyl)urea]
inhibition at 1 µM [3, 5]: 52.7%

Compound: Cc1nc(NC(=O)Nc2ccc(OC(F)(F)F)cc2)c(C)c(C)c1O [Compound 16-13, 1-(5-hydroxy-3,4,6-trimethylpyridin-2-yl)-3-(4-(trifluoromethoxy)phenyl)urea]
inhibition at 1 µM [3, 5]: 12.6%

Compound: Cc1nc(NC(=O)NCc2ccccc2)c(C)c(C)c1O [Compound 16-14, 1-benzyl-3-(5-hydroxy-3,4,6-trimethylpyridin-2-yl)urea]
inhibition at 1 µM [3, 5]: 4.9%

Compound: Cc1nc(NC(=O)Nc2ccc(C(C)C)cc2)c(C)c(C)c1O [Compound 16-15, 1-(5-hydroxy-3,4,6-trimethylpyridin-2-yl)-3-(4-isopropylphenyl)urea]
inhibition at 1 µM [3, 5]: 11.5%

Compound: Cc1nc(NC(=O)NC(=O)c2ccccc2)c(C)c(C)c1O [Compound 16-16, N-((5-hydroxy-3,4,6-trimethylpyridin-2-yl)carbamoyl)benzamide]
inhibition at 1 µM [3, 5]: 34.2%

Compound: Cc1nc(NC(=S)Nc2ccc(Cl)c(Cl)c2)c(C)c(C)c1OCc1ccccc1 [Compound 17-8a, 1-(5-benzyloxy-3,4,6-trimethylpyridin-2-yl)-3-(3,4-dichlorophenyl)thiourea]
inhibition at 1 µM [3, 5]: 17.3%

Compound: COc1c(C)nc(NC(=S)Nc2ccc(Cl)c(Cl)c2)c(C)c1C [Compound 17-8b, 1-(3,4-dichlorophenyl)-3-(5-methoxy-3,4,6-trimethylpyridin-2-yl)thiourea]
inhibition at 1 µM [3, 5]: 39.5%

Compound: Cc1nc(NC(=S)Nc2ccc(Cl)c(Cl)c2)c(C)c(C)c1O[Si](c1ccccc1)(c1ccccc1)C(C)(C)C [Compound 17-8c, 1-(5-((tert-butyldiphenylsilyl)oxy)-3,4,6-trimethylpyridin-2-yl)-3-(3,4-dichlorophenyl)thiourea]
inhibition at 1 µM [3, 5]: 18.8%

Compound: Cc1nc(NC(=S)Nc2cccc(C(F)(F)F)c2)c(C)c(C)c1OCc1ccccc1 [Compound 17-9a, 1-(5-benzyloxy-3,4,6-trimethylpyridin-2-yl)-3-(3-(trifluoromethyl)phenyl)thiourea]
inhibition at 1 µM [3, 5]: 19.6%

Compound: COc1c(C)nc(NC(=S)Nc2cccc(C(F)(F)F)c2)c(C)c1C [Compound 17-9b, 1-(5-Methoxy-3,4,6-trimethylpyridin-2-yl)-3-(3-(trifluoromethyl)phenyl)thiourea]
inhibition at 1 µM [3, 5]: 39%

Compound: Cc1nc(NC(=S)Nc2cccc(C(F)(F)F)c2)c(C)c(C)c1O[Si](c1ccccc1)(c1ccccc1)C(C)(C)C [Compound 17-9c, 1-(5-((tert-Butyldiphenylsilyl)oxy)-3,4,6-trimethylpyridin-2-yl)-3-(3-(trifluoromethyl)phenyl)thiourea]
inhibition at 1 µM [3, 5]: 25.9%

Compound: COc1ccc(NC(=S)Nc2nc(C)c(O[Si](c3ccccc3)(c3ccccc3)C(C)(C)C)c(C)c2C)cc1 [Compound 17-12c, 1-(5-((tert-Butyldiphenylsilyl)oxy)-3,4,6-trimethylpyridin-2-yl)-3-(4-methoxyphenyl)thiourea]
inhibition at 1 µM [3, 5]: 16%

Compound: Cc1ccc(NC(=S)Nc2nc(C)c(O)c(C)c2C)cc1 [Compound 18-5, 1-(5-hydroxy-3,4,6-trimethylpyridin-2-yl)-3-(p-tolyl)thiourea]
inhibition at 1 µM [3, 5]: 19.2%

Compound: Cc1nc(NC(=S)Nc2ccc(Br)cc2)c(C)c(C)c1O [Compound 18-7, 1-(4-bromophenyl)-3-(5-hydroxy-3,4,6-trimethylpyridin-2-yl)thiourea]
inhibition at 1 µM [3, 5]: 27.8%

Compound: COc1ccc(NC(=S)Nc2nc(C)c(O)c(C)c2C)cc1 [Compound 18-12, 1-(5-Hydroxy-3,4,6-trimethylpyridin-2-yl)-3-(4-methoxyphenyl)thiourea]
inhibition at 1 µM [3, 5]: 13.3%

Compound: Cc1nc(O)c(C)c(C)c1O [Compound 28-1, 3,4,6-Trimethylpyridine-2,5-diol]
inhibition at 1 µM [3, 5]: ≥ 50%

Compound: CCCCOc1nc(C)c(O)c(C)c1C [Compound 28-2, 6-butoxy-2,4,5-trimethylpyridin-3-ol]
inhibition at 1 µM [3, 5]: 48.2%

Compound: CCCCCCCCOc1nc(C)c(O)c(C)c1C [Compound 28-3, 2,4,5-Trimethyl-6-(octyloxy)pyridin-3-ol]
inhibition at 1 µM [3, 5]: 30.4%

Compound: Cc1nc(OCCC(C)C)c(C)c(C)c1O [Compound 28-4, 6-isopentyloxy-2,4,5-trimethylpyridin-3-ol]
inhibition at 1 µM [3, 5]: 33.2%

Compound: Cc1nc(OC2CCCC2)c(C)c(C)c1O [Compound 28-5, 6-cyclopentyloxy-2,4,5-trimethylpyridin-3-ol]
inhibition at 1 µM [3, 5]: 28.8%

Compound: Cc1nc(OCCCc2ccccc2)c(C)c(C)c1O [Compound 28-6, 2,4,5-Trimethyl-6-(3-phenylpropoxy)pyridin-3-ol]
inhibition at 1 µM [3, 5]: ≥ 50%

Compound: COc1cccc2c1C(=O)c1c(O)c3c(c(O)c1C2=O)C[C@@](O)(C(=O)CO)C[C@@H]3O[C@H]1C[C@H](N)[C@H](O)[C@H](C)O1 [Doxorubicin, reference compound]
viability at 48 h, 0.01 µM [1]: 69.9 ± 1.1%
viability at 48 h, 0.1 µM [1]: 66.9 ± 3.3%
viability at 48 h, 1 µM [1]: 58.2 ± 6.4%
viability at 48 h, 10 µM [1]: 53.2 ± 5.1%
viability at 48 h, 100 µM [1]: 35.7 ± 2%
IC50 at 48 h [1, 4]: 12.9 µM
viability at 48 h, 0.01 µM [2]: 93.6 ± 1.8%
viability at 48 h, 0.1 µM [2]: 91.4 ± 3.3%
viability at 48 h, 1 µM [2]: 42.2 ± 1.3%
viability at 48 h, 10 µM [2]: 38.3 ± 0.6%
viability at 48 h, 100 µM [2]: 33.2 ± 1.3%
IC50 at 48 h [2]: 0.6 µM
